Source: ChEMBL document CHEMBL1275438, “The human CXC chemokine granulocyte chemotactic protein 2 (GCP-2)/CXCL6 possesses membrane-disrupting properties and is antibacterial” (2008)
Values after ≈ are worked out from the molar mass of the structure shown. Active and inactive are the calls of the source. No cut-off for these calls is given here.

Tests used:
Assay type in all cases: functional
[1] = tested on: Lipid bilayer; assay: Induction of negatively charged DOPE/DOPG liposome disruption assessed as percent leakage after <1000 sec by spectrometry
[2] = tested on: Lipid bilayer; assay: Induction of negatively charged DOPE/DOPG liposome disruption by spectrometry in presence of 150 mM sodium chloride
[3] = tested on: Escherichia coli; assay: Antibacterial activity against Escherichia coli 37.4 after 1 hr by bactericidal assay
[4] = tested on: Streptococcus pyogenes; assay: Antibacterial activity against Streptococcus pyogenes AP1 after 1 hr by bactericidal assay

Row | Compound | Activity [1] [%] | Activity [2] | MBC [3] [µM] | MBC ([3]; Escherichia coli, 37.4, 1 h, read-out: MBC) [µM] | MBC [4] [µM] | MBC ([4]; Streptococcus pyogenes, AP1, 1 h, read-out: MBC) [µM]
1 | CC[C@H](C)[C@H](NC(=O)[C@H](CCCCN)NC(=O)[C@H](CCC(N)=O)NC(=O)[C@@H](NC(=O)[C@@H](NC(=O)[C@H](CCCCN)NC(=O)[C@H](CCCCN)NC(=O)[C@H](CC(C)C)NC(=O)[C@H](Cc1ccccc1)NC(=O)[C@@H]1CCCN1C(=O)[C@@H](C)N)C(C)C)[C@@H](C)CC)C(=O)N[C@@H](CC(C)C)C(=O)N[C@@H](CC(=O)O)C(=O)N[C@@H](CO)C(=O)NCC(=O)N[C@@H](CC(N)=O)C(=O)N[C@@H](CCCCN)C(=O)N[C@@H](CCCCN)C(=O)N[C@@H](CC(N)=O)C(=O)O | 70 | Active | – | – | – | –
2 | CC[C@H](C)[C@H](NC(=O)[C@H](CCCCN)NC(=O)[C@H](CCC(N)=O)NC(=O)[C@@H](NC(=O)[C@@H](NC(=O)[C@H](CCCCN)NC(=O)[C@H](CCCCN)NC(=O)[C@H](CC(C)C)NC(=O)[C@H](Cc1ccccc1)NC(=O)[C@@H]1CCCN1C(=O)[C@H](C)N)C(C)C)[C@@H](C)CC)C(=O)N[C@@H](CC(C)C)C(=O)N[C@@H](CC(=O)O)C(=O)N[C@@H](CO)C(=O)NCC(=O)N[C@@H](CC(N)=O)C(=O)N[C@@H](CCCCN)C(=O)N[C@@H](CCCCN)C(=O)N[C@@H](CC(N)=O)C(=O)O | – | – | 9.5 (≈ 20.3 µg/mL) | 5.6 (≈ 12 µg/mL) | 9.5 (≈ 20.3 µg/mL) | 5.7 (≈ 12.2 µg/mL)
